This passage reports IC50 results from US8993756B2 (Merck Sharp & Dohme Corp., priority 2011, dated 2015).

One assay concerns the target JAK3 (Homo sapiens (Human), UniProt P52333). Description: Jak Biochemical HTRF Assay (JAK3). The following applies: recombinant GST-tagged catalytic domain, [ATP] 2.9 μM. On the procedure:
(§1) Biological Assays Jak Biochemical HTRF Assay Protocol
The ability of compounds to inhibit the activity of JAK1, JAK2, JAK3, and Tyk2 was measured using a recombinant purified GST-tagged catalytic domain for each enzyme (Invitrogen JAK1 #M4290, JAK2 #M4290, JAK3 #M4290, Tyk2 #M4290) in an HTRF format biochemical assay. […] Subsequent reagent additions employed an Agilent Bravo. […] After equilibration, 2 μL of 10×ATP in 1× assay buffer was added to initiate the kinase reaction and the plates were shaken and then incubated at room temperature for 120 minutes. At the end of the incubation, 20 μL of 2× stop buffer (streptavidin-Dylight 650 (Thermo #84547B100 mL), Eu-tagged pY20 antibody (Perkin Elmer #AD0067), EDTA, HEPES, and Triton) was added to quench the reaction. […] After normalization to untreated controls, the percent inhibition of the HTRF signal at each compound concentration was calculated. The plot of percent inhibition versus the log of compound concentration was fit with a 4-parameter dose response equation to calculate IC50 values.
(In TR-FRET formats the signal depends on donor and acceptor labels being close together.)

The target in a further assay is JAK2 (Homo sapiens (Human), UniProt O60674). Description: Jak Biochemical HTRF Assay (JAK2). The following applies: recombinant GST-tagged catalytic domain, [ATP] 8.5 μM. On the procedure:
as §1
The ability of compounds to inhibit the activity of JAK1, JAK2, JAK3, and Tyk2 was measured using a recombinant purified GST-tagged catalytic domain for each enzyme (Invitrogen JAK1 #M4290, JAK2 #M4290, JAK3 #M4290, Tyk2 #M4290) in an HTRF format biochemical assay. […] The basic assay protocol is as follows: First, 250 nL of diluted compounds in DMSO were dispensed into the wells of a dry 384-well Black plate (Greiner #781076) using a Labcyte Echo 555 acoustic dispenser. Subsequent reagent additions employed an Agilent Bravo. Next, 18 μL of 1.11× enzyme and 1.11× substrate in 1× assay buffer (Invitrogen kinase buffer # PV3189, 2 mM DTT, 0.05% BSA) were added to the wells and shaken and then preincubated for 30 minutes at room temperature to allow compound binding to equilibrate. After equilibration, 2 μL of 10×ATP in 1× assay buffer was added to initiate the kinase reaction and the plates were shaken and then incubated at room temperature for 120 minutes. At the end of the incubation, 20 μL of 2× stop buffer (streptavidin-Dylight 650 (Thermo #84547B100 mL), Eu-tagged pY20 antibody (Perkin Elmer #AD0067), EDTA, HEPES, and Triton) was added to quench the reaction. Plates were shaken and centrifuged and then incubated 60 minutes at room temperature and then read on a Perkin Elmer Envision (λex=337 nm, λem=665 and 615 nm, TRF delay time=20 μs). HTRF signal=10,000*665 nm reading 615 nm reading. After normalization to untreated controls, the percent inhibition of the HTRF signal at each compound concentration was calculated. The plot of percent inhibition versus the log of compound concentration was fit with a 4-parameter dose response equation to calculate IC50 values.

JAK2, sequence (O60674 849-1124): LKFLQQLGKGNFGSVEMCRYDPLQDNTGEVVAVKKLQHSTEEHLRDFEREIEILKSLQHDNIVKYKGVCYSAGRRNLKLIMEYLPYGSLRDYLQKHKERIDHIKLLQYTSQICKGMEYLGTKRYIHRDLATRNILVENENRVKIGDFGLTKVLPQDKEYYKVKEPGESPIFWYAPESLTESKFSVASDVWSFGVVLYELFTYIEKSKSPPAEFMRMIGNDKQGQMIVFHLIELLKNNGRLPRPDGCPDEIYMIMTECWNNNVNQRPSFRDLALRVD
JAK3, sequence (P52333 822-1111): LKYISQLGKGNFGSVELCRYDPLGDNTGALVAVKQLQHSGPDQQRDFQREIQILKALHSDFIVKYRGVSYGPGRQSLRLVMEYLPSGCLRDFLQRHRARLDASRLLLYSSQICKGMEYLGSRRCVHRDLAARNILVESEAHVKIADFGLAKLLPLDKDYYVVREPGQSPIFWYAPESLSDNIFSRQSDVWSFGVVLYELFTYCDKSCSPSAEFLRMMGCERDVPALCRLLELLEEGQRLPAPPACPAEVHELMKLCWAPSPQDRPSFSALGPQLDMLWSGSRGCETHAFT

Usually IC50 stands for the concentration at which inhibition is half-maximal. For `CCOC(=O)c1c[nH]c2ncnc(-c3ccccc3)c12` [Example 1-1, Ethyl 4-phenyl-7H-pyrrolo[2,3-d]pyrimidine-5-carboxylate], the IC50 stood at 5.5 nM at JAK3 and 91 nM at JAK2. `CCOC(=O)c1c[nH]c2ncnc(-c3ccc(Cl)cc3)c12` [Example 1-2, Ethyl 4-(4-chlorophenyl)-7H-pyrrolo[2,3-d]pyrimidine-5-carboxylate]: the IC50 on JAK3 (given as range class) and on JAK2 (given as range class) was 10 to 500 nM each time. For the molecule `CCOC(=O)c1c[nH]c2ncnc(-c3cccc(N)c3)c12` [Example 1-3, Ethyl 4-(3-aminophenyl)-7H-pyrrolo[2,3-d]pyrimidine-5-carboxylate], the IC50 at JAK3 (given as range class) is 10 to 500 nM; at JAK2 (given as range class), > 500 nM. `CCOC(=O)c1c[nH]c2ncnc(-c3cc(N)nc(OC)c3)c12` [Example 1-4]: the IC50 at JAK3 (given as range class) was 10 to 500 nM; at JAK2 (given as range class), > 500 nM.

Turning to `CCOC(=O)c1c[nH]c2ncnc(-c3ccc4cn(C)nc4c3)c12` [Example 1-5, ethyl 4-(2-methyl-2H-indazol-6-yl)-7H-pyrrolo[2,3-d]pyrimidine-5-carboxylate], the IC50 on JAK3 worked out at 7.2 nM; on JAK2, 273 nM.

In the case of `CCOC(=O)c1c[nH]c2ncnc(-c3cccc(C#N)c3)c12` [Example 1-6, ethyl 4-(3-cyanophenyl)-7H-pyrrolo[2,3-d]pyrimidine-5-carboxylate], the IC50 on JAK3 (given as range class) and at JAK2 (given as range class) was 10 to 500 nM each time. Take `CCOC(=O)c1c[nH]c2ncnc(-c3ccc(C(N)=O)cc3)c12` [Example 1-7, ethyl 4-(4-carbamoylphenyl)-7H-pyrrolo[2,3-d]pyrimidine-5-carboxylate]: the IC50 was 10 to 500 nM at JAK3 (given as range class) and > 500 nM on JAK2 (given as range class). For `CCOC(=O)c1c[nH]c2ncnc(-c3cccc(C(=O)OC)c3)c12` [Example 1-8, ethyl 4-[3-(methoxycarbonyl)phenyl]-7H-pyrrolo[2,3-d]pyrimidine-5-carboxylate] the same measures were 10 to 500 nM and > 500 nM. `CCOC(=O)c1c[nH]c2ncnc(-c3ccc(C(=O)OC)cc3)c12` [Example 1-9, ethyl 4-[4-(methoxycarbonyl)phenyl]-7H-pyrrolo[2,3-d]pyrimidine-5-carboxylate]: the results for the IC50 at JAK3 (given as range class) and at JAK2 (given as range class) were 10 to 500 nM and > 500 nM, respectively. Turning to `CCOC(=O)c1c[nH]c2ncnc(-c3ccc(C#N)cc3)c12` [Example 1-10, ethyl 4-(4-cyanophenyl)-7H-pyrrolo[2,3-d]pyrimidine-5-carboxylate], the IC50 was 10 to 500 nM at JAK3 (given as range class) and > 500 nM on JAK2 (given as range class). For `CCOC(=O)c1c[nH]c2ncnc(-c3ccc(S(C)(=O)=O)cc3)c12` [Example 1-11, ethyl 4-[4-(methylsulfonyl)phenyl]-7H-pyrrolo[2,3-d]pyrimidine-5-carboxylate] the same measures were 10 to 500 nM and > 500 nM. Consider `CCOC(=O)c1c[nH]c2ncnc(-c3cccc(C(N)=O)c3)c12` [Example 1-12, ethyl 4-(3-carbamoylphenyl)-7H-pyrrolo[2,3-d]pyrimidine-5-carboxylate], for which the IC50 on JAK3 (given as range class) was 10 to 500 nM; at JAK2 (given as range class), > 500 nM. Consider `CCOC(=O)c1c[nH]c2ncnc(-c3ccc(C(=O)N(C)C)cc3)c12` [Example 1-13, ethyl 4-[4-(dimethylcarbamoyl)phenyl]-7H-pyrrolo[2,3-d]pyrimidine-5-carboxylate], for which the figures for the IC50 at JAK3 (given as range class) and on JAK2 (given as range class) were 10 to 500 nM and > 500 nM, respectively.

Turning to `CCOC(=O)c1c[nH]c2ncnc(-c3ccncc3)c12` [Example 1-14, ethyl 4-pyridin-4-yl-7H-pyrrolo[2,3-d]pyrimidine-5-carboxylate], the IC50 at JAK3 (given as range class) was 10 to 500 nM; at JAK2 (given as range class), > 500 nM. `CCOC(=O)c1c[nH]c2ncnc(-c3ccc(OC)cc3)c12` [Example 1-15, ethyl 4-(4-methoxyphenyl)-7H-pyrrolo[2,3-d]pyrimidine-5-carboxylate]: the values for the 50% inhibitory concentration (IC50) on JAK3 and at JAK2 were 5.7 nM and 134 nM, respectively. Regarding `CCOC(=O)c1c[nH]c2ncnc(-c3cccc(OC)c3)c12` [Example 1-17, ethyl 4-(3-methoxyphenyl)-7H-pyrrolo[2,3-d]pyrimidine-5-carboxylate], the IC50 at JAK3 (given as range class) and on JAK2 (given as range class) was 10 to 500 nM throughout.

`CCOC(=O)c1c[nH]c2ncnc(C3=CCN(C(=O)OC(C)(C)C)CC3)c12` [Example 1-18, ethyl 4-[1-(tert-butoxycarbonyl)-1,2,3,6-tetrahydropyridin-4-yl]-7H-pyrrolo[2,3-d]pyrimidine-5-carboxylate]: the IC50 at JAK3 (given as range class) and at JAK2 (given as range class) was 10 to 500 nM in each case. As to `CCOC(=O)c1c[nH]c2ncnc(C3=CCCN(C(=O)OC(C)(C)C)C3)c12` [Example 1-19, ethyl 4-[1-(tert-butoxycarbonyl)-1,2,5,6-tetrahydropyridin-3-yl]-7H-pyrrolo[2,3-d]pyrimidine-5-carboxylate], the IC50 at JAK3 (given as range class) was 10 to 500 nM; at JAK2 (given as range class) it was > 500 nM. Take `CCOC(=O)c1c[nH]c2ncnc(C3=CCN(C(=O)OC(C)(C)C)C3)c12` [Example 1-20, ethyl 4-[1-(tert-butoxycarbonyl)-2,5-dihydro-1H-pyrrol-3-yl]-7H-pyrrolo[2,3-d]pyrimidine-5-carboxylate]: the IC50 was 10 to 500 nM at JAK3 (given as range class) and > 500 nM on JAK2 (given as range class). Regarding `CCOC(=O)c1c[nH]c2ncnc(-c3cccc(OCC(F)(F)F)c3)c12` [Example 1-21, ethyl 4-[3-(2,2,2-trifluoroethoxy)phenyl]-7H-pyrrolo[2,3-d]pyrimidine-5-carboxylate], the IC50 stood at 3.5 nM on JAK3 and 73 nM at JAK2. For `CCOC(=O)c1c[nH]c2ncnc(-c3ccc(C)c(N)c3)c12` [Example 1-22, ethyl 4-(3-amino-4-methylphenyl)-7H-pyrrolo[2,3-d]pyrimidine-5-carboxylate] the same measures were 4.6 nM and 78 nM.

For the molecule `CCOC(=O)c1c[nH]c2ncnc(C3=CCCCC3)c12` [Example 1-23, ethyl 4-cyclohex-1-en-1-yl-7H-pyrrolo[2,3-d]pyrimidine-5-carboxylate], the IC50 on JAK3 was found to be 6 nM; at JAK2, 62 nM. `CCOC(=O)c1c[nH]c2ncnc(-c3ccc(Cl)c(N)c3)c12` [Example 1-24, ethyl 4-(3-amino-4-chlorophenyl)-7H-pyrrolo[2,3-d]pyrimidine-5-carboxylate]: the results for the IC50 at JAK3 and on JAK2 were 7.5 nM and 125 nM, respectively. Regarding `CCOC(=O)c1c[nH]c2ncnc(-c3ccc4sc(C)nc4c3)c12` [Example 1-25, ethyl 4-(2-methyl-1,3-benzothiazol-5-yl)-7H-pyrrolo[2,3-d]pyrimidine-5-carboxylate], the IC50 at JAK3 (given as range class) and at JAK2 (given as range class) was 10 to 500 nM in each case. In the case of `CCOC(=O)c1c[nH]c2ncnc(-c3cccc(OC(F)(F)F)c3)c12` [Example 1-26, ethyl 4-[3-(trifluoromethoxy)phenyl]-7H-pyrrolo[2,3-d]pyrimidine-5-carboxylate], the half-maximal inhibitory concentration (IC50) on JAK3 (given as range class) and on JAK2 (given as range class) was 10 to 500 nM each time.

`CCOC(=O)c1c[nH]c2ncnc(-c3cnn(C)c3)c12` [Example 1-27, ethyl 4-(1-methyl-1H-pyrazol-4-yl)-7H-pyrrolo[2,3-d]pyrimidine-5-carboxylate]: the results for the IC50 on JAK3 (given as range class) and on JAK2 (given as range class) were 10 to 500 nM and > 500 nM, respectively.

For the molecule `CCOC(=O)c1c[nH]c2ncnc(-c3ccc4c(F)n(C)nc4c3)c12` [Example 1-29, ethyl 4-(3-fluoro-2-methyl-2H-indazol-6-yl)-7H-pyrrolo[2,3-d]pyrimidine-5-carboxylate], the IC50 on JAK3 is 8.1 nM. The same measure, in the same setting: the result for `CCOC(=O)c1c[nH]c2ncnc(-c3ccc(CO)c(N)c3)c12` [Example 1-32, ethyl 4-[3-amino-4-(hydroxymethyl)phenyl]-7H-pyrrolo[2,3-d]pyrimidine-5-carboxylate] reads 8.3 nM; that for `CCOC(=O)c1c[nH]c2ncnc(-c3cccc(Cl)c3)c12` [Example 1-39, ethyl 4-(3-chlorophenyl)-7H-pyrrolo[2,3-d]pyrimidine-5-carboxylate], 8.4 nM. The same measure, in the same setting: next, `CCOC(=O)c1c[nH]c2ncnc(-c3cccc(OCc4ccccc4)c3)c12` [Example 1-52, ethyl 4-[3-(benzyloxy)phenyl]-7H-pyrrolo[2,3-d]pyrimidine-5-carboxylate]: 3.3 nM.
